Assays:
[1] = tested on: Rhizopus oryzae JCM14625 strain (=NBRC 5384); assay: LDH activity evaluation-1: mycelia prepared from spores in surfactant-supplemented PDB medium, LDH activity of fungus body extract; format: cell-based; conditions: for LDH activity (relative value): 0.5% (w/v) surfactant in PDB medium at spore germination, LDH activity in the absence of the surfactant = 100; for LDH activity compared with control fungus bodies (in words): 0.5% (w/v) surfactant at spore germination, versus medium non-supplemented with the surfactant
Method: A loopful of a cryopreserved spore suspension sample (−80° C.) of a Rhizopus oryzae JCM14625 strain (=NBRC 5384) obtained from a culture collection Riken BioResource Center (BRC) was inoculated to a PDA medium (Difco Potato Dextrose Agar, manufactured by Becton, Dickinson and Company) and then statically cultured at 30° C. for from 7 to 10 days. After visual confirmation of hyphal growth and blackening at the ends of hyphae associated with sporulation, from 30 to 40 mL of saline was added thereto. Spores, together with hyphae, were collected into a 50-mL centrifugal tube with a lid (manufactured by Greiner bio-one) using a platinum loop and then vigorously mixed in the tube. The spore suspension thus mixed was filtered through 3GP100 cylindrical funnel-shaped glass filter (manufactured by Shibata Scientific Technology Ltd.). The resulting filtrate was used as a spore solution. The number of spores in the spore solution was measured using a hemocytometer (D=1/50 mm· 1/400 mm^2) after appropriate dilution with saline.
80 mL of a PDB medium non-supplemented or supplemented with 0.5% (w/v) (final concentration) of each surfactant described below was applied to a 200-mL baffled Erlenmeyer flask (manufactured by Asahi Glass Co., Ltd.). The Rhizopus oryzae spore suspension prepared in Production Example 1 was inoculated thereto at a dose of 1×10^3 spores/mL of the medium and then cultured at 27° C. for 3 days with stirring at 170 rpm. Since mycelia would remain on the filter, the cultures were filtered through a stainless sieve of 250 μm in mesh size (manufactured by AS ONE Corp.) sterilized in advance to recover fungus bodies onto the filter.
From3.0 to 4.0 g (wet weight) of the recovered fungus bodies was inoculated to 100 mL of an inorganic culture medium (composition: 10% glucose, 0.1% ammonium sulfate, 0.06% potassium dihydrogen phosphate, 0.025% magnesium sulfate heptahydrate, 0.009% zinc sulfate heptahydrate, and 5.0% calcium carbonate; all the concentrations mean % (w/v)) applied to a 500-mL Erlenmeyer flask, and then cultured at 27° C. for approximately 40 hours with stirring at 220 rpm. Subsequently, the cultures thus obtained by culture in the inorganic culture medium were filtered using a stainless screen filter holder (manufactured by EMD Millipore) sterilized in advance to recover fungus bodies onto the filter. On this filter holder, the fungus bodies were further washed with 100 mL of saline. The saline used in washing was removed by suction filtration. The obtained fungus bodies were used in the following LDH activity evaluation and evaluation of the ability to fermentatively produce lactic acid.
6.0 g of the wet fungus bodies of the genus Rhizopus obtained in Production Example 3 was inoculated to 40 mL of an inorganic culture medium for lactic acid production evaluation (composition: 8.0% glucose, 0.1% ammonium sulfate, 0.06% potassium dihydrogen phosphate, 0.025% magnesium sulfate heptahydrate, 0.009% zinc sulfate heptahydrate, and 5.0% calcium carbonate; all the concentrations mean % (w/v)) applied to a 200-mL Erlenmeyer flask, and then cultured at 35° C. with stirring at 170 rpm. After 4.5-hour culture of the fungus bodies of the genus Rhizopus with stirring, the fungus bodies were filtered using a stainless screen filter holder (manufactured by EMD Millipore) sterilized in advance to recover fungus bodies onto the filter. On this filter holder, the fungus bodies were further washed with 100 mL of saline. The saline used in washing was removed by suction filtration. 0.3 g of the obtained fungus bodies was recovered into a 3-mL disruption tube (manufactured by Yasui Kikai Corp.). Metal cone for 3 mL (manufactured by Yasui Kikai Corp.) was added to the tube, which was then capped and then frozen in liquid nitrogen. The frozen 3-mL disruption tube was applied to Multi-Beads Shocker (manufactured by Yasui Kikai Corp.). The fungus bodies were disrupted at 1700 rpm for 10 seconds.

[2] = tested on: Rhizopus oryzae JCM14625 strain (=NBRC 5384); assay: Evaluation of ability to produce lactic acid-1 (production rate of lactic acid); format: cell-based; conditions: 0.5% (w/v) surfactant in PDB medium at spore germination; rate in the absence of the surfactant = 100
Method: Specifically, the mycelia of a fungus of the genus Rhizopus were prepared by the method of Production Example 2 using the surfactant and then grown by the method of Production Example 3. 6.0 g of the obtained wet fungus bodies of the genus Rhizopus was inoculated to 40 mL of an inorganic culture medium for lactic acid production evaluation (composition: 8.0% glucose, 0.1% ammonium sulfate, 0.06% potassium dihydrogen phosphate, 0.025% magnesium sulfate heptahydrate, 0.009% zinc sulfate heptahydrate, and 5.0% calcium carbonate; all the concentrations mean % (w/v)) applied to a 200-mL Erlenmeyer flask, and then cultured at 35° C. with stirring at 170 rpm. The supernatant of the culture medium was recovered every 2 hours from 30 minutes after the fungus body inoculation. Glucose and lactic acid were quantified by the procedures described later in Reference Example 1. A relative value of the production rate of lactic acid was determined on the basis of the calculation method described in Reference Example 2.
Glucose and lactic acid were quantified using an HPLC apparatus LaChrom Elite (manufactured by Hitachi High-Technologies Corp.). The analytical column used was a carbohydrate/organic acid analysis column HPX-87H (7.8 mm I.D.×30 cm, manufactured by Bio-Rad Laboratories, Inc.) connected with a guard column Cation H (4.6 mm I.D.×3.0 cm, manufactured by Bio-Rad Laboratories, Inc.). Elution was performed under conditions involving 10 mM sulfuric acid as an eluent, a flow rate of 0.85 mL/min, and a column temperature of 50° C. Glucose and lactic acid were detected using a differential refractive index detector (RI detector) and a UV detector (detection wavelength: 210 nm), respectively. The standard samples used were glucose (distributor code: 049-31165, manufactured by Wako Pure Chemical Industries Ltd.), and lithium L-lactate (product number: L2250, manufactured by Sigma-Aldrich Inc.). Quantification was performed on the basis of concentration calibration curves prepared using these standard samples.
The supernatant sample of each culture medium to be subjected to HPLC analysis was appropriately diluted in advance with 37 mM sulfuric acid and then applied to DISMIC-13cp (0.20 μm cellulose acetate membrane, manufactured by […] Group) or MULTI SCREEN MNHV45 (0.45 μm Durapore membrane, manufactured by EMD Millipore) to remove insoluble matter.
The concentration of lactic acid (unit: g of lactic acid/L of medium) in the supernatant sample of each culture medium was measured according to Reference Example 1 and divided by a time (unit: hr) required for change in lactic acid concentration to calculate the production rate of lactic acid per unit time (unit: g of lactic acid/L/hr). In addition, a relative value to the production rate of lactic acid under control conditions in each Production Example was determined.

[3] = Evaluation of foaming property by the inversion stirring method; format: physicochemical; conditions: for Volume of foam (relative value): 0.5% (w/v) surfactant in PDB medium, 30 seconds after stirring, foam in the absence of the surfactant = 100; for Volume of foam relative to the volume of foam in the absence of the surfactant (in words): 0.5% (w/v) in PDB medium
Method: Each surfactant used in Test Example 2 was evaluated for its foaming properties by the inversion stirring method. 100 mL of a PDB medium non-supplemented or supplemented with 0.5% (w/v) (final concentration) of a surfactant was added to a graduated cylindrical container of 50 mm in diameter and then inversion-stirred for 300 seconds using a flat propeller while the propeller was inverted every 6 seconds at 1000 rpm. 30 seconds after the completion of stirring, the volume of foam in the medium was measured.

| Substance | LDH activity (relative value) [1] [relative value] | Production rate of lactic acid (relative value) [2] [relative value] | Volume of foam (relative value) [3] [relative value] | Volume of foam relative to the volume of foam in the absence of the surfactant (in words) [3] | LDH activity compared with control fungus bodies (in words) [1] |
| --- | --- | --- | --- | --- | --- |
| Polyoxyethylene (4) lauryl ether | 214 | 171 | 350 |  |  |
| Polyoxyethylene (4) sorbitan monolaurate | 140 | 142 | 150 | twice or less |  |
| Polyoxyethylene (10) octyl phenyl ether | 178 | 254 | 2000 |  | higher LDH activity |
| Sodium deoxycholate | 109 |  |  |  | higher LDH activity |
| Polyoxyethylene (6) lauryl ether | 93 |  |  |  | slightly lower LDH activity |
| Sorbitan monooleate | 135 | 113 | 100 | twice or less | higher LDH activity |
| Polyoxyethylene (3) lauryl ether | 170 | 203 | 250 |  |  |
| Polyoxyethylene (5) lauryl ether | 112 |  |  |  |  |
| Polyoxyethylene (20) sorbitan monolaurate | 148 | 137 | 1350 |  |  |

Source: patent US20150125915A1, “Method for Producing Lactic Acid” (Kao Corporation, priority 2012, published 2015)
